Test results published in patent US10662194B2, “Substituted 6-anilino-9-heterocyclylpurine derivatives for inhibition of plant stress” (UNIVERZITA PALACKEHO V OLOMOUCI, priority 2014, dated 2020).
Marks after values point to notes of the source that are not given here.

Key:
[1] = system: Arabidopsis (ecotype Col-0); test: Drenching application, morphological and yield traits of Arabidopsis in soil; type: in vivo
Experimental: To test the effect on wild-type plants Arabidopsis (ecotype Col-0) was grown in soil in controlled conditions in a growth chambre (16 hours light/8 hours dark; light intensity 120 […]; 22° C.; 60% humidity). In the stage of app. the middle of the principal growth stage 1 and the beginning of principal growth stage 5 (according to Arabidopsis growth stages described by Boyes et al., 2001) 1-10 mL of the compound 12 was applied regulary every third day in 0.1 and 1 μM concentration in different application rates (experiment 1-1 mL of 1 μM compound 12 water solution 12-times; experiment 2-10 mL of 0.1 and 1 μM compound 12 water solution 1-, 3- and 5-times) by drenching to each plant pot. DMSO (0.01%) was used as a solvent control. The plants were grown till the end of the generative stage and then morphological parametres (primary inflorescence stem length, number of auxiliary branches, number of lateral branches, fresh shoot biomass, number of flowers, number of siliques) and the seed yield were recorded.

[2] = system: wild-type Arabidopsis plants; test: In vitro root growth of wild-type Arabidopsis plants; type: in vivo; settings: 0.1 μM in MS medium, FIG. 6
Experimental: As shown in previous example presence of compound 12 in the growth medium has positive effect on the root growth of cytokinin-deficient Arabidopsis plants. This effect was further studied using wild-type Arabidopsis plants and compared with biologically and structurally relevant compounds, a cytokinin BAP and a CKX inhibitor INCYDE. […] Arabidopsis seedlings were grown in vitro on a standard MS medium containing 0.1 μM cytokinin BAP, the same concentration of compound 12 and the same concentration of CKX inhibitor INCYDE (2-chloro-6-(3-methoxyanilino)purine).

[3] = Calcein AM viability/cytotoxicity assay, MRC-5; type: cell-based; settings: human, MRC-5 lung fibroblasts; MRC-5, 72 h, FIG. 11; read-out: IC50, concentration reducing number of viable cells to 50%
Description: Absence of toxic effects against mammalian (especially human) cell lines in a wide concentration range is one of the requirements on compounds intended for use in agriculture and medicine. Because toxic compounds negatively influence metabolic processes in cells, many standard cytotoxicity assays are based on measurement of metabolisation rate of various artificial substrates. Resulting product is then quantified e.g. by means of spectrometry. The assays can be easily modified for use in 96-well plates. For evaluation of cytotoxic effect of compounds of this invention, a microtiter assay based on quantification of metabolisation of Calcein AM was used. The assay is widely used in drug screening programs and in chemosensitivity testing. In live cells, Calcein AM is enzymatically hydrolysed and accumulation of resulting calcein is manifested by green fluorescence. The cytotoxicity of the studied compounds was determined with human fibroblast lines MRC-5 (lung fibroblasts) and BJ (foreskin fibroblasts). […] The fluorescence of the live cells was measured at 485 nm/538 nm (excitation/emission) with a Fluoroskan Ascent microplate reader (Labsystems). […]

In the case of `COc1cccc(Nc2nc(Cl)nc3c2ncn3C2CCCCO2)c1` (stereo not shown) [compound 12, 2-chloro-6-(3-methoxyanilino)-9-(tetrahydropyran-2-yl)purine], the “No. of auxiliary branches” value ([1]; 0.1 μM, application rate 1x) was 4.06 ± 1.3, the “No. of auxiliary branches (% of control)” value ([1]; 0.1 μM, application rate 1x) was “(113%)” and the No. of flowers ([1]; 0.1 μM, application rate 1x) was 116.12 ± 70. For the same compound, the “No. of flowers (% of control)” value ([1]; 0.1 μM, application rate 1x) was “(153%)*”, the “No. of lateral branches” value ([1]; 0.1 μM, application rate 1x) was 8.59 ± 3.1 and the “No. of lateral branches (% of control)” value ([1]; 0.1 μM, application rate 1x) was “(182%)***”. For the same compound, the No. of siliques ([1]; 0.1 μM, application rate 1x) was 133.94 ± 47, the “No. of siliques (% of control)” value ([1]; 0.1 μM, application rate 1x) was “(100%)” and the fresh shoot biomass ([1]; 0.1 μM, application rate 1x) was 1.18 ± 0.4 g. The “fresh shoot biomass (% of control)” value ([1]; 0.1 μM, application rate 1x) was “(108%)”, the “primary inflorescence stem length” value ([1]; 0.1 μM, application rate 1x) was 32.78 ± 5.5 cm and the “primary inflorescence stem length (% of control)” value ([1]; 0.1 μM, application rate 1x) was “(98%)”. For the same compound, the “seed yield per plant” value ([1]; 0.1 μM, application rate 1x) was 0.30 ± 0.1 g, the “seed yield per plant (% of control)” value ([1]; 0.1 μM, application rate 1x) was “(102%)” and the “No. of auxiliary branches” value ([1]; 0.1 μM, application rate 3x) was 3.82 ± 0.6. The “No. of auxiliary branches (% of control)” value ([1]; 0.1 μM, application rate 3x) was “(106%)”, the No. of flowers ([1]; 0.1 μM, application rate 3x) was 91.23 ± 50.1 and the “No. of flowers (% of control)” value ([1]; 0.1 μM, application rate 3x) was “(120%)”. For the same compound, the “No. of lateral branches” value ([1]; 0.1 μM, application rate 3x) was 8.35 ± 3.3, the “No. of lateral branches (% of control)” value ([1]; 0.1 μM, application rate 3x) was “(177%)***” and the No. of siliques ([1]; 0.1 μM, application rate 3x) was 154.29 ± 25.6. The “No. of siliques (% of control)” value ([1]; 0.1 μM, application rate 3x) was “(115%)”, the fresh shoot biomass ([1]; 0.1 μM, application rate 3x) was 1.16 ± 0.2 g and the “fresh shoot biomass (% of control)” value ([1]; 0.1 μM, application rate 3x) was “(106%)”. The “primary inflorescence stem length” value ([1]; 0.1 μM, application rate 3x) was 39.6 ± 3.8 cm, the “primary inflorescence stem length (% of control)” value ([1]; 0.1 μM, application rate 3x) was “(119%)***” and the “seed yield per plant” value ([1]; 0.1 μM, application rate 3x) was 0.31 ± 0.1 g. The “seed yield per plant (% of control)” value ([1]; 0.1 μM, application rate 3x) was “(106%)”, the “No. of auxiliary branches” value ([1]; 0.1 μM, application rate 5x) was 3.94 ± 1.1 and the “No. of auxiliary branches (% of control)” value ([1]; 0.1 μM, application rate 5x) was “(109%)”. For the same compound, the No. of flowers ([1]; 0.1 μM, application rate 5x) was 99.59 ± 59.3, the “No. of flowers (% of control)” value ([1]; 0.1 μM, application rate 5x) was “(131%)” and the “No. of lateral branches” value ([1]; 0.1 μM, application rate 5x) was 9.82 ± 4.4. For the same compound, the “No. of lateral branches (% of control)” value ([1]; 0.1 μM, application rate 5x) was “(208%)***”, the No. of siliques ([1]; 0.1 μM, application rate 5x) was 141.24 ± 31.7 and the “No. of siliques (% of control)” value ([1]; 0.1 μM, application rate 5x) was “(105%)”. The fresh shoot biomass ([1]; 0.1 μM, application rate 5x) was 1.18 ± 0.3 g, the “fresh shoot biomass (% of control)” value ([1]; 0.1 μM, application rate 5x) was “(108%)” and the “primary inflorescence stem length” value ([1]; 0.1 μM, application rate 5x) was 38.61 ± 5.2 cm. For the same compound, the “primary inflorescence stem length (% of control)” value ([1]; 0.1 μM, application rate 5x) was “(116%)***”, the “seed yield per plant” value ([1]; 0.1 μM, application rate 5x) was 0.35 ± 0.1 g and the “seed yield per plant (% of control)” value ([1]; 0.1 μM, application rate 5x) was “(120%)”. The “No. of auxiliary branches” value ([1]; 1 μM, application rate 1x) was 4.29 ± 1.5, the “No. of auxiliary branches (% of control)” value ([1]; 1 μM, application rate 1x) was “(119%)” and the No. of flowers ([1]; 1 μM, application rate 1x) was 139.65 ± 51.7. For the same compound, the “No. of flowers (% of control)” value ([1]; 1 μM, application rate 1x) was “(184%)***”, the “No. of lateral branches” value ([1]; 1 μM, application rate 1x) was 13.35 ± 4.7 and the “No. of lateral branches (% of control)” value ([1]; 1 μM, application rate 1x) was “(283%)***”. For the same compound, the No. of siliques ([1]; 1 μM, application rate 1x) was 134.82 ± 31.1, the “No. of siliques (% of control)” value ([1]; 1 μM, application rate 1x) was “(100%)” and the fresh shoot biomass ([1]; 1 μM, application rate 1x) was 1.17 ± 0.3 g. For the same compound, the “fresh shoot biomass (% of control)” value ([1]; 1 μM, application rate 1x) was “(107%)”, the “primary inflorescence stem length” value ([1]; 1 μM, application rate 1x) was 32.66 ± 3.8 cm and the “primary inflorescence stem length (% of control)” value ([1]; 1 μM, application rate 1x) was “(98%)”. The “seed yield per plant” value ([1]; 1 μM, application rate 1x) was 0.37 ± 0.1 g, the “seed yield per plant (% of control)” value ([1]; 1 μM, application rate 1x) was “(126%)” and the “No. of auxiliary branches” value ([1]; 1 μM, application rate 3x) was 4.29 ± 1.1. For the same compound, the “No. of auxiliary branches (% of control)” value ([1]; 1 μM, application rate 3x) was “(119%)*”, the No. of flowers ([1]; 1 μM, application rate 3x) was 118.53 ± 36.6 and the “No. of flowers (% of control)” value ([1]; 1 μM, application rate 3x) was “(156%)***”. For the same compound, the “No. of lateral branches” value ([1]; 1 μM, application rate 3x) was 13.50 ± 3.9, the “No. of lateral branches (% of control)” value ([1]; 1 μM, application rate 3x) was “(286%)***” and the No. of siliques ([1]; 1 μM, application rate 3x) was 155.29 ± 44.1. The “No. of siliques (% of control)” value ([1]; 1 μM, application rate 3x) was “(116%)”, the fresh shoot biomass ([1]; 1 μM, application rate 3x) was 1.23 ± 0.3 g and the “fresh shoot biomass (% of control)” value ([1]; 1 μM, application rate 3x) was “(113%)”. For the same compound, the “primary inflorescence stem length” value ([1]; 1 μM, application rate 3x) was 39.07 ± 3.2 cm, the “primary inflorescence stem length (% of control)” value ([1]; 1 μM, application rate 3x) was “(117%)***” and the “seed yield per plant” value ([1]; 1 μM, application rate 3x) was 0.36 ± 0.1 g. The “seed yield per plant (% of control)” value ([1]; 1 μM, application rate 3x) was “(122%)”, the “No. of auxiliary branches” value ([1]; 1 μM, application rate 5x) was 4.50 ± 1.3 and the “No. of auxiliary branches (% of control)” value ([1]; 1 μM, application rate 5x) was “(125%)”. For the same compound, the No. of flowers ([1]; 1 μM, application rate 5x) was 143.56 ± 66.3, the “No. of flowers (% of control)” value ([1]; 1 μM, application rate 5x) was “(189%)***” and the “No. of lateral branches” value ([1]; 1 μM, application rate 5x) was 16.44 ± 6.1. For the same compound, the “No. of lateral branches (% of control)” value ([1]; 1 μM, application rate 5x) was “(349%)***”, the No. of siliques ([1]; 1 μM, application rate 5x) was 220.00 ± 37.4 and the “No. of siliques (% of control)” value ([1]; 1 μM, application rate 5x) was “(164%)***”. The fresh shoot biomass ([1]; 1 μM, application rate 5x) was 1.81 ± 0.3 g, the “fresh shoot biomass (% of control)” value ([1]; 1 μM, application rate 5x) was “(166%)***” and the “primary inflorescence stem length” value ([1]; 1 μM, application rate 5x) was 44.66 ± 5.9 cm. The “primary inflorescence stem length (% of control)” value ([1]; 1 μM, application rate 5x) was “(134%)***”, the “seed yield per plant” value ([1]; 1 μM, application rate 5x) was 0.33 ± 0.1 g and the “seed yield per plant (% of control)” value ([1]; 1 μM, application rate 5x) was “(111%)”. For the same compound, the overall shoot biomass ([1]; experiment 1: 1 mL of 1 μM, 12-times, drenching, FIG. 8) was “stimulation of the overall shoot biomass”, the “increase of fresh shoot biomass compared to control” value ([1]; experiment 2, higher doses) was 6-22% and the “increase of number of auxiliary branches compared to control” value ([1]; experiment 2, higher doses) was 6-25%. The “increase of number of flowers compared to control” value ([1]; experiment 2, higher doses) was 20-89%, the “increase of number of lateral branches compared to control” value ([1]; experiment 2, higher doses) was 77-249% and the “increase of number of siliques compared to control” value ([1]; experiment 2, higher doses) was 5-66%. The “increase of primary inflorescence stem length compared to control” value ([1]; experiment 2, higher doses) was 16-34%, the “increase of seed yield compared to control” value ([1]; experiment 2, higher doses) was 6-26% and the root growth [2] was “positive effect on the root length and lateral branching”. The IC50 at 72 h [3] was > 100 µM.
